Source: paper PMC5447464 (Gastroenterology, 2017)
Like-named read-outs stand apart in the source and are kept apart here.

How the values were obtained:
[1] = tested on: HepG2 and Huh7 cells; assay type: cell-based, human; details: read-out: IC50, proliferation of HepG2 and Huh7 cells
[2] = tested on: orthotopic PDX from HCC patients (HCC-1, HCC-2, HCC-3); assay: Orthotopic HCC PDX models, drug in food; assay type: in vivo, mouse; details: for PDX tumor growth (bioluminescence signals and tumor volumes): 1,500 p.p.m mixed in food, oral, vs regular chow
[3] = tested on: HepG2; assay: Viability of HCC cell line HepG2; assay type: cell-based, human
[4] = tested on: genetically induced liver tumors; assay: Primary HCC mouse model; assay type: in vivo; details: 1500 p.p.m in food, 12 weeks; for number of tumor nodules in the livers: vs control food
[5] = tested on: Hep3B; assay: Viability of HCC cell line Hep3B; assay type: cell-based, human
[6] = tested on: SNU-475; assay: Viability of HCC cell line SNU-475; assay type: cell-based, human
[7] = tested on: SNU-423; assay: Viability of HCC cell line SNU-423; assay type: cell-based, human
[8] = tested on: Hep40; assay: Viability of HCC cell line Hep40; assay type: cell-based, human; details: read-out: IC50 in HCC cell lines, Hep40
[9] = tested on: primary hepatocytes Hu8216; assay: Viability of primary hepatocytes Hu8216; assay type: cell-based; details: Homo sapiens, Hepatocyte, read-out: IC50 in primary hepatocytes, Hu8216
[10] = tested on: Huh7; assay: Viability of HCC cell line Huh7; assay type: cell-based, human
[11] = tested on: PLC/PRF/5; assay: Viability of HCC cell line PLC/PRF/5; assay type: cell-based, human
[12] = tested on: primary hepatocytes Hu1748; assay: Viability of primary hepatocytes Hu1748; assay type: cell-based; details: Homo sapiens, Hepatocyte, read-out: IC50 in primary hepatocytes, Hu1748
[13] = cited from earlier work
[14] = target: T1, CDC37 (Homo sapiens, UniProt Q16543); assay: Pull-down assay with niclosamide-conjugated sepharose beads; assay type: binding; details: niclosamide conjugated to epoxy-activated sepharose beads
T1 sequence (Q16543 1-378): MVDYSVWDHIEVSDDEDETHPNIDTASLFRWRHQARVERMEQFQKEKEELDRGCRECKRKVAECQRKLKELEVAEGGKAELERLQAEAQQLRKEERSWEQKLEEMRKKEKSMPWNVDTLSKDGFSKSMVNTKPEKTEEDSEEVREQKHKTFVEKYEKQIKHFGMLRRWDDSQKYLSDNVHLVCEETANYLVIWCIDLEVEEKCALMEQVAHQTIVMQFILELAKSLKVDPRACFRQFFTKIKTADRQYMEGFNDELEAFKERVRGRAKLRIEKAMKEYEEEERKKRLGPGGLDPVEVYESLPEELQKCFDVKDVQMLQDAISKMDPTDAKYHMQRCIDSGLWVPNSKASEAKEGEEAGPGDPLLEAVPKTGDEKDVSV

[15] = tested on: SNU-398; assay: Viability of HCC cell line SNU-398; assay type: cell-based, human
[16] = tested on: PDX-HCC-2; assay: PDX; assay type: in vivo, mouse; details: PDX HCC-2, sorafenib 50 mg/Kg, NEN 200 mg/Kg or niclosamide 400 mg/Kg, daily oral gavage, four weeks
[17] = tested on: SNU-449; assay: Viability of HCC cell line SNU-449; assay type: cell-based, human
[18] = tested on: SNU-182; assay: Viability of HCC cell line SNU-182; assay type: cell-based, human
[19] = target: T1, CDC37; assay: Thermal Shift Assay; assay type: binding; details: DMSO control 52.3 °C
[20] = cited from earlier work; remark: listed apart in the source
[21] = tested on: control shRNA and CDC37 shRNA stable transfected Huh7; assay: Cell viability of control shRNA and CDC37 shRNA Huh7; assay type: cell-based, human; details: 6 days of treatment
[22] = single oral dose 40 mg/Kg, mice bearing PDX, compared with niclosamide
[23] = tested on: control shRNA and CDC37 shRNA stable transfected Hep3B; assay: Cell viability of control shRNA and CDC37 shRNA Hep3B; assay type: cell-based, human; details: 6 days of treatment
[24] = tested on: control shRNA and CDC37 shRNA stable transfected HepG2; assay: Cell viability of control shRNA and CDC37 shRNA HepG2; assay type: cell-based, human; details: 6 days of treatment
[25] = target: HSP90/CDC37 complex (Homo sapiens, UniProt Q16543); assay type: biochemical; details: purified recombinant HSP90 and CDC37, ELISA and co-IP
[26] = tested on: HSP70 and HSP27 expression; assay: Western blot for heat shock response; assay type: cell-based; details: treated cell lines
[27] = tested on: Wnt/β-catenin, Stat3, AKT/mTOR, and EGFR/Ras/Raf pathway proteins; assay: Western blotting of signaling proteins in PDX; assay type: in vivo, mouse; details: NEN 1,500 p.p.m in food
[28] = tested on: HepG2 and Huh7 cells; assay: In vitro anti-proliferation assay combined with sorafenib; assay type: cell-based, human; details: added at its IC30 or IC50 to a range of sorafenib concentrations

## ivermectin
[1]; range over HepG2 and Huh7, Supplemental Figure 8
  IC50: > 10000 nM

## O=C(Nc1ccc([N+](=O)[O-])cc1Cl)c1cc(Cl)ccc1O [niclosamide]
[2]
  PDX tumor growth (bioluminescence signals and tumor volumes): did not produce any significant effects on tumor growth
[3]; Homo sapiens, HepG2, read-out: IC50 in HCC cell lines, HepG2
  IC50: 850 nM
[1]; Homo sapiens
  IC50: 650 to 1770 nM
[4]
  number of tumor nodules in the livers: much lesser effect than NEN
[5]; Homo sapiens, read-out: IC50 in HCC cell lines, Hep3B
  IC50: 200 nM
[6]; Homo sapiens, SNU-475, read-out: IC50 in HCC cell lines, SNU-475
  IC50: 400 nM
[7]; Homo sapiens, SNU-423, read-out: IC50 in HCC cell lines, SNU-423
  IC50: 320 nM
[8]; Homo sapiens
  IC50: 810 nM
[9]
  IC50: 4310 nM
[10]; Homo sapiens, Huh-7, read-out: IC50 in HCC cell lines, Huh7
  IC50: 740 nM
[11]; Homo sapiens, PLC-PRF-5, read-out: IC50 in HCC cell lines, PLC/PRF/5
  IC50: 770 nM
[12]
  IC50: 3640 nM
[13]; in vivo
  systemic bioavailability: very limited systemic bioavailability
[14]
  pull-down of CDC37: pulled down CDC37
[15]; Homo sapiens, SNU-398, read-out: IC50 in HCC cell lines, SNU-398
  IC50: 240 nM
[16]
  tumor volume: did not decrease tumor volume
[17]; Homo sapiens, SNU-449, read-out: IC50 in HCC cell lines, SNU-449
  IC50: 670 nM
[18]; Homo sapiens, SNU-182, read-out: IC50 in HCC cell lines, SNU-182
  IC50: 360 nM

## NCCO [ethanolamine]
[19]; 25 μM
  average Tm value of CDC37: 52.93 °C
[19]; 50 μM
  average Tm value of CDC37: 53.2 °C

## NCCO.O=C(Nc1ccc([N+](=O)[O-])cc1Cl)c1cc(Cl)ccc1O [NEN, niclosamide ethanolamine]
[2]
  PDX tumor growth (bioluminescence signals and tumor volumes): significantly decreased PDX growth
[2]; end of treatment period, treated vs control groups
  body weight changes: no significant body weight changes
[3]; HepG2
  IC30, HepG2: 400 nM
[3]; read-out: IC50 in HCC cell lines, HepG2, viability, HepG2
  IC50: 460 nM
[4]; vs control and niclosamide groups
  weight of whole livers (liver plus tumor nodules): significantly reduced liver weight
[4]
  number of tumor nodules in the livers: visibly reduced the number of tumor nodules
[5]; read-out: IC50 in HCC cell lines, Hep3B, viability
  IC50: 170 nM
[20]
  water solubility: improved water solubility
[21]; read-out: IC50, CDC37 knockdown Huh7, CDC37 shRNA
  IC50: 930 nM
[21]; read-out: IC50, mock transfected (control shRNA) Huh7, control shRNA
  IC50: 610 nM
[22]
  plasma levels: similarly higher
[19]; 25 μM
  average Tm value of CDC37: 54.97 °C
[19]; 50 μM
  average Tm value of CDC37: 56.03 °C
[6]; read-out: IC50 in HCC cell lines, SNU-475, viability, SNU-475
  IC50: 350 nM
[7]; read-out: IC50 in HCC cell lines, SNU-423, viability, SNU-423
  IC50: 260 nM
[8]; viability, Hep40
  IC50: 740 nM
[10]; Huh7
  IC30, Huh7: 500 nM
[10]; read-out: IC50 in HCC cell lines, Huh7, viability, Huh7
  IC50: 630 nM
[23]; read-out: IC50, CDC37 knockdown Hep3B, CDC37 shRNA
  IC50: 520 nM
[23]; read-out: IC50, mock transfected (control shRNA) Hep3B, control shRNA
  IC50: 160 nM
[11]; read-out: IC50 in HCC cell lines, PLC/PRF/5, viability, PLC/PRF/5
  IC50: 530 nM
[13]
  systemic bioavailability: improved water solubility and systemic bioavailability over niclosamide
[24]; read-out: IC50, CDC37 knockdown HepG2, CDC37 shRNA
  IC50: 610 nM
[24]; read-out: IC50, mock transfected (control shRNA) HepG2, control shRNA
  IC50: 350 nM
[15]; read-out: IC50 in HCC cell lines, SNU-398, viability, SNU-398
  IC50: 200 nM
[17]; read-out: IC50 in HCC cell lines, SNU-449, viability, SNU-449
  IC50: 530 nM
[18]; read-out: IC50 in HCC cell lines, SNU-182, viability, SNU-182
  IC50: 340 nM
[25]
  effect on HSP90/CDC37 interaction: inhibited the HSP90/CDC37 interaction
[26]
  heat shock response (HSP70 and HSP27 induction): did not induce the classical heat shock response
[27]
  expression levels of signaling pathway proteins: decreased expression levels of proteins involved in multiple signaling pathways
[28]
  effect on IC50 of sorafenib in HCC cells: reduced their IC50 values to sorafenib

## COC(=O)Nc1nc2ccc(C(=O)c3ccccc3)cc2[nH]1 [mebendazole]
[1]; Homo sapiens
  IC50: 380 to 1650 nM
